Data from PubChem BioAssay (NCI).
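Test compounds were applied to cells in 96-well plates for 48 hours at 5 doses. TGI denotes the concentration required for complete inhibition of growth.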

What was measured:
Assay in all cases: NCI tumour cell line growth inhibition, 48 h
[1] = test system: SF-295 CNS
[2] = test system: HL-60(TB) leukemia
[3] = test system: NCI-H23 lung
[4] = test system: 786-0 renal
[5] = test system: UO-31 renal
[6] = test system: SK-MEL-28 melanoma
[7] = test system: ACHN renal
[8] = test system: SF-268 CNS
[9] = test system: OVCAR-8 ovarian
[10] = test system: IGROV1 ovarian
[11] = test system: OVCAR-5 ovarian
[12] = test system: KM12 colon
[13] = test system: MOLT-4 leukemia
[14] = test system: SK-OV-3 ovarian
[15] = test system: HOP-62 NSCLC
[16] = test system: SNB-19 CNS

Compound: CN1CCC2(c3ccccc3)CC(=O)/C(=C/c3ccc(Cl)c(Cl)c3)C1C2 (configuration not stated)
- TGI [1]: 6.52 µM
- TGI [2]: 3.46 µM
- TGI [3]: 8.45 µM
- TGI [4]: 5.35 µM
- TGI [5]: 3.82 µM
- TGI [6]: 5.59 µM
- TGI [7]: 3.17 µM
- TGI [8]: 3.73 µM
- TGI [9]: 4.64 µM
- TGI [10]: 4.19 µM
- TGI [11]: 6.37 µM
- TGI [12]: 4.14 µM
- TGI [13]: 7.81 µM
- TGI [14]: 13.6 µM
- TGI [15]: 12.3 µM
- TGI [16]: 5.32 µM

Compound: CCCCC(=O)/C=c1/cc(C)[nH]c2cccc3cnn1c32
- TGI [1]: > 100 µM
- TGI [2]: > 100 µM
- TGI [3]: > 100 µM
- TGI [4]: > 100 µM
- TGI [5]: > 100 µM
- TGI [6]: > 100 µM
- TGI [7]: > 100 µM
- TGI [8]: > 100 µM
- TGI [9]: > 100 µM
- TGI [10]: > 100 µM
- TGI [11]: > 100 µM
- TGI [12]: > 100 µM
- TGI [13]: > 100 µM
- TGI [14]: > 100 µM
- TGI [15]: > 100 µM
- TGI [16]: > 100 µM

Compound: CC(=O)NS(=O)(=O)c1ccc(NCc2cccc3c(=O)c4ccc(Cl)cc4oc23)cc1
- TGI [1]: > 100 µM
- TGI [2]: 5.43 µM
- TGI [3]: > 71.6 µM
- TGI [4]: > 100 µM
- TGI [5]: > 100 µM
- TGI [6]: > 100 µM
- TGI [7]: > 100 µM
- TGI [8]: > 100 µM
- TGI [9]: > 49.1 µM
- TGI [10]: > 100 µM
- TGI [11]: > 100 µM
- TGI [12]: > 100 µM
- TGI [13]: > 100 µM
- TGI [14]: > 100 µM
- TGI [15]: 96.8 µM
- TGI [16]: > 100 µM

Compound: CC(=O)Nc1cc(Cl)cc(Cl)c1O
- TGI [1]: > 100 µM
- TGI [2]: > 100 µM
- TGI [3]: > 100 µM
- TGI [4]: > 100 µM
- TGI [5]: > 100 µM
- TGI [6]: > 100 µM
- TGI [7]: > 100 µM
- TGI [8]: > 100 µM
- TGI [9]: > 100 µM
- TGI [10]: > 100 µM
- TGI [11]: > 100 µM
- TGI [12]: > 100 µM
- TGI [13]: > 100 µM
- TGI [14]: > 100 µM
- TGI [15]: > 100 µM
- TGI [16]: > 100 µM

Compound: COC(=O)[C@@H]1C[C@@H](O)CN1C(=O)c1ccc([N+](=O)[O-])cc1[N+](=O)[O-]
- TGI [1]: > 100 µM
- TGI [2]: > 100 µM
- TGI [3]: > 100 µM
- TGI [4]: > 100 µM
- TGI [5]: > 100 µM
- TGI [6]: > 100 µM
- TGI [7]: > 100 µM
- TGI [8]: > 100 µM
- TGI [9]: > 100 µM
- TGI [10]: > 100 µM
- TGI [11]: > 100 µM
- TGI [12]: > 100 µM
- TGI [13]: > 100 µM
- TGI [14]: > 100 µM
- TGI [15]: > 100 µM
- TGI [16]: > 100 µM

Compound: Cn1nnc2c(C(N)=S)ncn2c1=O
- TGI [1]: > 100 µM
- TGI [2]: > 100 µM
- TGI [3]: > 100 µM
- TGI [4]: > 100 µM
- TGI [5]: > 100 µM
- TGI [6]: > 100 µM
- TGI [7]: > 100 µM
- TGI [8]: > 100 µM
- TGI [9]: > 100 µM
- TGI [10]: > 100 µM
- TGI [11]: > 100 µM
- TGI [12]: > 100 µM
- TGI [13]: > 100 µM
- TGI [14]: > 100 µM
- TGI [15]: > 100 µM
- TGI [16]: > 100 µM

Compound: COC(=O)/C=C/CCC#Cc1ccccc1C#CCC/C=C/C(=O)OC
- TGI [1]: > 100 µM
- TGI [2]: 9.63 µM
- TGI [3]: 42.9 µM
- TGI [4]: 53.2 µM
- TGI [5]: > 100 µM
- TGI [6]: > 100 µM
- TGI [7]: > 100 µM
- TGI [8]: > 100 µM
- TGI [9]: 26 µM
- TGI [10]: 98.2 µM
- TGI [11]: > 100 µM
- TGI [12]: > 100 µM
- TGI [13]: 10.5 µM
- TGI [14]: > 100 µM
- TGI [15]: > 100 µM
- TGI [16]: > 100 µM

Compound: Cn1c(=O)c2ccccc2[n+]2c(-c3cccc([N+](=O)[O-])c3)csc12
- TGI [1]: > 100 µM
- TGI [2]: 62.8 µM
- TGI [3]: > 100 µM
- TGI [4]: > 100 µM
- TGI [5]: > 100 µM
- TGI [6]: > 100 µM
- TGI [7]: > 100 µM
- TGI [8]: > 100 µM
- TGI [9]: > 100 µM
- TGI [10]: > 100 µM
- TGI [11]: > 100 µM
- TGI [12]: > 100 µM
- TGI [13]: > 100 µM
- TGI [14]: > 100 µM
- TGI [15]: > 100 µM
- TGI [16]: > 100 µM

Compound: C=C1CN=C(Nc2ccc(Cl)cc2)S1
- TGI [1]: > 100 µM
- TGI [2]: > 10 µM
- TGI [3]: > 100 µM
- TGI [4]: > 100 µM
- TGI [5]: > 100 µM
- TGI [6]: > 100 µM
- TGI [7]: > 100 µM
- TGI [8]: > 100 µM
- TGI [9]: > 100 µM
- TGI [10]: > 100 µM
- TGI [11]: > 100 µM
- TGI [12]: > 100 µM
- TGI [13]: > 10 µM
- TGI [14]: > 100 µM
- TGI [15]: > 100 µM
- TGI [16]: > 100 µM

Compound: CC1(C)CC[C@]2(C(=O)O)CC[C@]3(C)C(=CCC4=C5C[C@H](O)[C@H](O)[C@@](C)(CO)[C@@]5(C)CC[C@]43C)[C@@H]2C1
- TGI [1]: > 100 µM
- TGI [2]: > 100 µM
- TGI [3]: > 100 µM
- TGI [4]: > 100 µM
- TGI [5]: > 100 µM
- TGI [6]: > 100 µM
- TGI [7]: > 100 µM
- TGI [8]: > 100 µM
- TGI [9]: > 100 µM
- TGI [10]: > 100 µM
- TGI [11]: > 100 µM
- TGI [12]: > 100 µM
- TGI [13]: > 100 µM
- TGI [14]: > 100 µM
- TGI [15]: > 100 µM
- TGI [16]: > 100 µM

Compound: CCN(CC)C1Oc2cc3c(cc2C(c2cc(OC)c(O)c(OC)c2)C1C)OCO3 (configuration not stated)
- TGI [1]: 24.1 µM
- TGI [2]: 11.9 µM
- TGI [3]: > 100 µM
- TGI [4]: 29.1 µM
- TGI [5]: > 100 µM
- TGI [6]: 44.2 µM
- TGI [7]: > 100 µM
- TGI [8]: > 100 µM
- TGI [9]: 38.8 µM
- TGI [10]: 50 µM
- TGI [11]: 21.7 µM
- TGI [12]: 22.5 µM
- TGI [13]: 27.2 µM
- TGI [14]: 66.3 µM
- TGI [15]: 39.6 µM
- TGI [16]: 44.2 µM

Compound: COC(=O)c1cc(CC2Cc3cc4c(cc3C2=O)CCC4)cc2c1CCC2 (configuration not stated)
- TGI [1]: > 100 µM
- TGI [2]: > 100 µM
- TGI [3]: > 100 µM
- TGI [4]: > 100 µM
- TGI [5]: > 100 µM
- TGI [6]: > 100 µM
- TGI [7]: > 100 µM
- TGI [8]: > 100 µM
- TGI [9]: > 100 µM
- TGI [10]: > 100 µM
- TGI [11]: > 100 µM
- TGI [12]: > 100 µM
- TGI [13]: > 100 µM
- TGI [14]: > 100 µM
- TGI [15]: > 100 µM
- TGI [16]: > 100 µM
